Measured values published in article PMC5597121, “The human bitter taste receptor T2R38 is broadly tuned for bacterial compounds” (PLoS ONE, 2017).
Changes are numbered by the printed parent chain. Where “and” joins values, the source holds several entries; their conditions need not be identical. Equal values may be shown once. Entries after “also recorded” stand apart in the source; their conditions may differ. Positions of bridges follow the written chain, without caps; N, C: chain ends. Residues, ends and D or L forms follow the SMILES beside them.

Tests used:
[1] = target: T1, T2R38 (Homo sapiens, UniProt P59533, A49P/I296V); experiment: Single cell calcium imaging, Peakrapid cells (Gα16gustducin44) transiently transfected with T2R38; format: cell-based; settings: for response of T2R38 PAV transfected cells (S7_fig raw data): individual values of experiments 1-5; for EC50: concentration-response curve, read-out: EC50; for logEC50: given in the concentration-response curve; for Emax (% of positive control): percentage of the response elicited by 0.1 mM PTC
T1 construct: leader: first 45 amino acids of rat somatostatin receptor subtype 3 (SSTR3) (N); expressed in transfected cells; host or cells: Peakrapid cells (HEK293 derivative, ATCC CRL-2828) stably expressing Galpha16gustducin44, co-transfected with human RTP4
T1 sequence (P59533 1-333 A49P/I296V): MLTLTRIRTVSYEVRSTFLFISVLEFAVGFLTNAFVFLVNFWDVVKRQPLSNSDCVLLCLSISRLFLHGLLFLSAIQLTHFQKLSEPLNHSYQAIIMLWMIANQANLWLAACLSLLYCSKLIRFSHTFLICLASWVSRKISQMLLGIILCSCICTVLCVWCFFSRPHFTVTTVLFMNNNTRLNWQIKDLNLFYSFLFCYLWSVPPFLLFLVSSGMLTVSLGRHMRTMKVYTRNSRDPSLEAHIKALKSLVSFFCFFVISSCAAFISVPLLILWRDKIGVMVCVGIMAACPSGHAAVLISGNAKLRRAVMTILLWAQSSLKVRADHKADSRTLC
Text: (§1) The coding sequences of either the functional (PAV, GenBank accession number AY258597.1) and non-functional (AVI, GenBank accession number AF494231.1) were amplified from human genomic DNA by polymerase chain reaction.
These coding sequences were cloned in a pEFIB backbone vector in translational fusion with the coding sequence of a leader sequence corresponding to the 45 first amino acids of the rat somatostatin receptor subtype 3 [20]. The constructs were verified by sequencing. The coding sequence of RTP4 (Genbank accession number AY562238.1) was amplified from human spleen cDNA and cloned a pCI backbone vector.
The Gα16gustducin44 sequence was generated by swapping the last 132 nucleotides of the G α16 with the corresponding terminal sequence of the Gα-gustducin [21] and was cloned in a pIRES-Puro plasmid. This vector was transfected in the Peakrapid cell line (ATCC reference: CRL-2828™; purchased from LGC Standards SARL, Molsheim, FRANCE), HEK293 cell line derivative, cultured in EMEM culture medium (reference BE12-136F; Lonza, Vervier, BELGIUM) supplemented with 10% of foetal bovine serum (Sigma-Aldrich, Bornem, Belgium) and 1 μg/ml of Puromycin to allow the selection of recombinant cell populations. Cell clones expressing the Gα16gustducin44 were selected and the clone presenting the best functional response of T2R38 to phenylthicarbamide was used for the study (see below).
(§2) The Peakrapid cell line expressing stably a chimeric Gα16gustducin44 G protein [21] was used. 40 000 cells were seeded in each well of a black/clear poly-D-lysine cellware pre-coated 96-well plate (Biocoat®, Becton-Dickinson, Erembodegem, Belgium) and transiently transfected with 50 ng of plasmid DNA containing the receptor sequence or not (empty vector) and with 50 ng of chaperone protein RTP4 per well. Forty hours after transfection, cells were incubated with the calcium-sensitive dye Fluo4 (Life Technologies, Oregon, USA) solubilized at 10 μg/ml in a buffer containing EMEM (150 mM NaCl, 5 mM KCl, 2 mM CaCl2, 1.2 mM MgCl2, 10 mM glucose), 10 mM HEPES, 0.01% (v/v) Pluronic F127, 0.1% (w/v) bovine serum albumin. After 1 h incubation at 37°C, cells were rinsed twice with the same buffer without Fluo4 and left in 50 μl buffer (prior ligand injection). Measurement were performed on a platform based on a motorized Axiobserver Z1 fluorescence microscope piloted by a Axiovision software (Zeiss, Jena, Germany) as described previously. For each selected well, images were taken 1 per second, during 30 seconds. 50 μl of the buffer containing the ligand twice concentrated was injected on the 2nd second of the time lapse record.
After time lapse record, the number of responding cells in each injected well was determined using ImageJ 1.34 (Rasband, W.S., ImageJ, National Institutes of Health, Bethesda, Maryland, USA, http://rsb.info.nih.gov/ij/1997-2004), and expressed as the percentage of the surface of a microscope field covered by activated cells with respect to the total surface of the field covered by confluent cells. Automated determination of the surface occupied by responding cells is easier to perform than a cell counting. The resulting percentage of positive surface provided a convenient estimation of the percentage of responding cells, as observed by comparing the percentage of positive surface and percentage of responsive cells determined by direct counting, in the same experiment. In agreement with the literature, the percentage of responding cells was proportional to the agonist concentration. During experiment in each plate, at least 2 wells were tested with phenylthiocarbamide (PTC) at 0.1 mM, which is one of the best characterized agonist of T2R38 in the literature. The activation of T2R38 by PTC allows normalization of the result of other tested molecules. The results were thus expressed as the percentage of PTC activation. […]

[2] = Solubility in aqueous / buffer solution; format: physicochemical
Protocol: 32 volatile metabolites of pathogens (S1 Fig) were selected from the literature. All compounds were dissolved in buffer solution, except C4HSL dissolved in buffer solution, DMSO or ethanol, C12HSL dissolved in DMSO or ethanol, and Agr D1 thiolactone dissolved in DMSO.

[3] = system: mock transfected cells (empty vector); experiment: Single cell calcium imaging, control: mock transfected (empty vector) Peakrapid cells; format: cell-based, human
Protocol: as §2
(§3) After time lapse record, the number of responding cells in each injected well was determined using ImageJ 1.34 (Rasband, W.S., ImageJ, National Institutes of Health, Bethesda, Maryland, USA, http://rsb.info.nih.gov/ij/1997-2004), and expressed as the percentage of the surface of a microscope field covered by activated cells with respect to the total surface of the field covered by confluent cells. Automated determination of the surface occupied by responding cells is easier to perform than a cell counting. The resulting percentage of positive surface provided a convenient estimation of the percentage of responding cells, as observed by comparing the percentage of positive surface and percentage of responsive cells determined by direct counting, in the same experiment. In agreement with the literature, the percentage of responding cells was proportional to the agonist concentration. During experiment in each plate, at least 2 wells were tested with phenylthiocarbamide (PTC) at 0.1 mM, which is one of the best characterized agonist of T2R38 in the literature. The activation of T2R38 by PTC allows normalization of the result of other tested molecules. The results were thus expressed as the percentage of PTC activation. In scaling calcium imaging assays using this latter receptor, concentration-responses curves were performed and data were fitted to a four parameter logistic equation: y=min+ (max− min)/1+10 ^(logEC50−x)nH . Min and max are the minimum and the maximum values of the percentage of cell-activated surface respectively, y is the percentage of cell-activated surface at the x concentration and nH is the Hill coefficient.

[4] = target: T2, T2R38 AVI (Homo sapiens, UniProt P59533, A262V); experiment: Single cell calcium imaging, control: cells transfected with nonfunctional allele (AVI) of T2R38; format: cell-based; settings: T2R38 AVI, individual values of experiments 1-5
T2 construct: leader: first 45 amino acids of rat somatostatin receptor subtype 3 (SSTR3) (N); expressed in transfected cells; host or cells: Peakrapid cells (HEK293 derivative, ATCC CRL-2828) stably expressing Galpha16gustducin44, co-transfected with human RTP4
T2 sequence (P59533 1-333 A262V): T1 sequence (P59533 1-333 A49P/I296V) with P49A, A262V, V296I
Protocol: as §1, §2, §3

[5] = 2 méthyl propanal 0.000398107, log10[ ] -3.4
[6] = 2 méthyl propanal 0.00251189, log10[ ] -2.6
[7] = 2 méthyl propanal 0.0158489, log10[ ] -1.8

Compound: CC[C@H](C)[C@@H]1NC(=O)[C@H](Cc2ccccc2)NC(=O)[C@H](CC(=O)O)NC(=O)[C@@H](NC(=O)[C@@H](NC(=O)[C@H](CO)NC(=O)[C@@H](N)Cc2ccc(O)cc2)[C@@H](C)O)CSC(=O)[C@H](CCSC)NC1=O [Agr D1 thiolactone] (H-YSTCDFIM; thioester 4-C; N-terminus assumed)
- agonist activity on T2R38 (in words) [1]: inactive
- specific activation of T2R38 ([1]; 0.1 mM solubilized in 0.3% DMSO): did not show specific activation; also recorded: did not activate T2R38
- solubility [2]: not soluble in aqueous solution

Compound: CS [methylmercaptan]
- percentage of surface covered by activated cells ([3]; méthylmercaptan 0.0075, log10[ ] -2.12494): 0.35% and 0.33% and 0.26% and 0.19% and 1.74% and 0.81% and 0.76%
- percentage of surface covered by activated cells ([3]; méthylmercaptan 0.01, log10[ ] -2): 0.36% and 0.09% and 0.12% and 0.53% and 2.03% and 0.10% and 0.15% and 0.34%
- agonist activity on T2R38 (in words) [1]: able to specifically trigger this receptor
- response of T2R38 PAV transfected cells (S7_fig raw data) ([1]; listed as méthylmercaptan): 3.25% and 3.44% and 8% and 6% and 6.36% and 5% and 1.09% and 2.8% and 3.57% and 1.72% and 3% and 1.56% and 5.64% and 4.55%
- EC50 [1]: 8 mM
- logEC50 [1]: -2.07
- percentage of surface covered by activated cells ([1]; méthylmercaptan 0.000630957, log10[ ] -3.2): 0.11% and 0.07% and 0.29% and 0.31% and 0.27% and 0.54% and 0.96% and 0.62%
- percentage of surface covered by activated cells ([1]; méthylmercaptan 0.00439285, log10[ ] -2.35725): 0.81% and 0.87% and 0.46% and 0.37% and 1.33% and 0.26% and 1.05% and 0.97%
- Emax (% of positive control) [1]: 31 % of positive control
- response of T2R38 AVI transfected cells (S7_fig raw data) ([4]; listed as méthylmercaptan): 0.549% and 0.185% and 0.235% and 0.0265% and 0.511% and 0.151% and 0.286% and 0.362% and 1.77% and 0.619% and 1.26% and 0.598% and 0.172% and 0.165%

Compound: CC(C)C=O [2-methylpropanal]
- percentage of surface covered by activated cells [3, 5]: 0.75% and 0.87% and 0.24% and 0.23% and 0.25% and 0.37% and 0.61%
- percentage of surface covered by activated cells [3, 6]: 0.28% and 0.65% and 0.25% and 0.23% and 1.49% and 1.18% and 0.31% and 0.37%
- percentage of surface covered by activated cells ([3]; 2 méthyl propanal 0.00398107, log10[ ] -2.4): 0.33% and 0.26% and 0.12% and 0.41% and 0.13% and 0.42% and 0.48% and 0.87%
- percentage of surface covered by activated cells ([3]; 2 méthyl propanal 0.00630957, log10[ ] -2.2): 0.35% and 0.63% and 0.24% and 0.06% and 0.59% and 0.25% and 0.34% and 0.85%
- percentage of surface covered by activated cells ([3]; 2 méthyl propanal 0.01, log10[ ] -2): 0.73% and 0.27% and 0.89% and 1.38% and 0.42% and 1.05% and 1.19% and 0.79%
- percentage of surface covered by activated cells [3, 7]: 1.86% and 0.33% and 2.42% and 3.28% and 1.11% and 1.32% and 3.65% and 5.14%
- agonist activity on T2R38 (in words) [1]: able to specifically trigger this receptor
- percentage of surface covered by activated cells [1, 5]: 0.29% and 0.95% and 0.86% and 0.39% and 1.39% and 0.60% and 1.13% and 1.16%
- percentage of surface covered by activated cells [1, 6]: 1.62% and 0.54% and 2.22% and 1.87% and 1.50% and 1.18% and 5.46% and 4.93%
- percentage of surface covered by activated cells [1, 7]: 36.19% and 28.82% and 26.57% and 24.12% and 23.76% and 32.56% and 40.19% and 33.93%
- response of T2R38 PAV transfected cells (S7_fig raw data) ([1]; listed as 2 méthyl propanal): 27% and 16% and 28% and 14% (2×) and 8.51%
- EC50 [1]: 11 mM
- logEC50 [1]: -1.97
- Emax (% of positive control) [1]: 163 % of positive control
- response of T2R38 AVI transfected cells (S7_fig raw data) ([4]; listed as 2 méthyl propanal): 1% (2×) and 2% and 1.41% and 0.831% and 1.15%

Compound: CC(C)=O [acetone]
- percentage of surface covered by activated cells ([3]; acetone 0.0035, log10[ ] -2.45): 1.26% and 0.40% and 0.58%
- percentage of surface covered by activated cells ([3]; acetone 0.011, log10[ ] -1.95): 0.32% and 0.08% and 0.49% and 0.06%
- percentage of surface covered by activated cells ([3]; acetone 0.035, log10[ ] -1.45): 0.26% and 0.42% and 1.02% and 0.10%
- percentage of surface covered by activated cells ([3]; acetone 0.066, log10[ ] -1.18): 1.43% and 0.30% and 0.70%
- percentage of surface covered by activated cells ([3]; acetone 0.114, log10[ ] -0.94): 0.76% and 0.05% and 0.38% and 0.11%
- percentage of surface covered by activated cells ([3]; acetone 0.162, log10[ ] -0.79): 1.04% and 0.22% and 0.73% and 0.01%
- percentage of surface covered by activated cells ([3]; acetone 0.185, log10[ ] -0.73): 0.0454% and 0.0283% and 0.02%
- agonist activity on T2R38 (in words) [1]: able to specifically trigger this receptor
- response of T2R38 PAV transfected cells (S7_fig raw data) [1]: 16% and 18% and 21% and 22% and 7% and 15%
- percentage of surface covered by activated cells ([1]; acetone 0.0035, log10[ ] -2.45): 0.29% and 0.16% and 0.35%
- percentage of surface covered by activated cells ([1]; acetone 0.011, log10[ ] -1.95): 1.02% and 0.77% and 0.78% and 0.46% and 1.17% and 0.98%
- percentage of surface covered by activated cells ([1]; acetone 0.035, log10[ ] -1.45): 0.69% and 0.81% and 7.95% and 5.59% and 2.13% and 2.80%
- percentage of surface covered by activated cells ([1]; acetone 0.066, log10[ ] -1.18): 2.66% and 2.94% and 6.89% and 9.70%
- EC50 [1]: 60 mM
- logEC50 [1]: -1.22
- Emax (% of positive control) [1]: 67 % of positive control
- response of T2R38 AVI transfected cells (S7_fig raw data) [4]: 0.559% and 1.33% and 0.331% and 0.695% and 0.444% and 0.829%
